For assay [1], the target named is T1, WalK (Bacillus subtilis, UniProt Q45614).
T1 construct: His6 (N); made in house; host or cells: E. coli BL21(DE3)
In words: Inhibition of WalK autophosphorylation. It is filed as biochemical. The following applies: for IC50: against WalK from B. subtilis, autophosphorylation, N.I. = no inhibition, read-out: IC50; for inhibitory activity against WalK: in words; for WalK: summary class. On the set-up: key to WalK: WalK + inhibitory effect against WalK. The method, then: Autophosphorylation of WalK was conducted at 0.5 or 1 µM in a reaction mixture comprising 50 mM Tris-HCl (pH 8.5), 100 mM KCl, 5 mM MgCl2, 100 mM NH4Cl, 5% DMSO, and 40 µM ATP. The total reaction volume was 40 µl, and the incubation lasted for 30 min at 25 °C. To terminate the reaction, 40 µl of 2 × SDS-PAGE sample buffer was added, followed by a 10-min incubation at 37 °C. Subsequently, SDS-PAGE (10% acrylamide) was performed, and the samples were subjected to Western blotting using a PVDF membrane (Bio-Rad 1620177). The primary antibody used was anti-N3-phosphohistidine antibody (clone SC56-2) (EDM Millipore Corp), and the secondary antibody was goat anti-rabbit IgG-HRP (Abcam). A 2% bovine serum albumin (Sigma-Aldrich) solution served as the blocking reagent. Signals originating from phosphorylated HKs were detected using the HRP substrate (Immobilon Western Chemiluminescent HRP substrate, Millipore) and the Multi Imager II Multi Box (Bio Tools). Signal intensities were quantified with Image Analysis Software CS Analyzer 4 (ATTO). IC50 values (50% inhibitory concentrations) were determined using Prism 7 software (GraphPad).
In the assessment of naphthoquinone derivatives, the initial screening for inhibitory activity against WalK autophosphorylation was conducted at 50 or 100 µg ml^−1. Compounds displaying inhibitory activity were further examined to ascertain their IC50 values against WalK. For the chosen compounds, inhibition against EvgS, EnvZ, PhoQ, and CpxA HKs was also assessed. These reactions involved the use of 1 µM HK, 40 µM ATP, and a 30 min incubation at 25 °C.

For assay [2], the system named is iseA (formerly yoeB). As to the kind of experiment: RT-qPCR of iseA expression in B. subtilis cells. The following applies: for expression of iseA: exponentially growing cells, subMIC or MIC levels, 5 min, relative to DMSO control; for RT-qPCR: summary class, iseA gene expression in B. subtilis 168. On the set-up: key to RT-qPCR: RT-qPCR + iseA gene expression was induced in B. subtilis 168; − no effect. The class given is cell-based, B. subtilis 168. As to the method: In brief, the cells were aerated and grown to an optical density at 660 nm of 0.3–0.4 at 37 °C. After the addition of DMSO or naphthoquinone derivatives, the cultures were further incubated for 5 min, cooled on ice for 1 min, and then harvested by centrifugation (2300 × g, 10 min, 4 °C). The cells were resuspended in 800 µl of RNA Lysis Buffer (SV Total RNA Isolation System, Z3100, Promega), transferred to a screw-capped tube containing 400 mg of glass beads (GB-01, TOMY), and disrupted using MicroSmash (MS-100, TOMY Medico) at 3000 rpm, 60 s ON/OFF for 6 cycles. RNA was then purified from 175 µl of the supernatant using the SV Total RNA Isolation System, followed by DNase I treatment (Turbo DNA-free^TM Kit, AM1907, Invitrogen) to remove any residual genomic DNA contamination. […] The expression levels of the genes were normalized using the 16S rRNA gene as an internal standard. Each assay was performed at least three times. Statistical analyses were conducted using Tukey’s multiple comparison test (GraphPad Prism 7).
A general note: Real-time PCR tracks product formation cycle by cycle.

Entries after “also recorded” stand apart in the source; their conditions may differ. Like-named read-outs stand apart in the source and are kept apart here.

T1 sequence (Q45614 207-611): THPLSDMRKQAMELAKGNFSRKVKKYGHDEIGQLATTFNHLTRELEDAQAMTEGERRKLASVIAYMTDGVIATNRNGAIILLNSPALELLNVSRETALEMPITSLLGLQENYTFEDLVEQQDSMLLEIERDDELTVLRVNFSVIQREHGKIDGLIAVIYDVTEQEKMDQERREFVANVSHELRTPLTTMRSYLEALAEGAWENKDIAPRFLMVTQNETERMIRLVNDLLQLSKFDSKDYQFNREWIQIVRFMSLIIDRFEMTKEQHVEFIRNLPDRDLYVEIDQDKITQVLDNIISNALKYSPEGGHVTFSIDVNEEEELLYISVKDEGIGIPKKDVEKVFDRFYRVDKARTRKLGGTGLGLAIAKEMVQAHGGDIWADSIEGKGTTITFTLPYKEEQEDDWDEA

With `O=C1C(Cl)=C(Nc2ccc(Cl)c(O)c2)C(=O)c2c(O)ccc(O)c21` [2h, 2-chloro-3-((4-chloro-3-hydroxyphenyl)amino)-5,8-dihydroxynaphthalene-1,4-dione], the IC50 in assay [1] (listed as C00015) amounted to 12.6 µM. Also, in assay [1], the “inhibitory activity against WalK” value is given as “comparable to waldiomycin” and the WalK result was “+”. In assay [2], the “expression of iseA” value was “significantly increased; also recorded: significantly induced iseA gene expression” and the RT-qPCR entry was “+”.
As to `Cc1noc2c1C(=O)c1c(O)ccc(O)c1C2=O` [3b, 5,8-dihydroxy-3-methylnaphtho[2,3-d]isoxazole-4,9-dione], in assay [1], the IC50 was determined as 186 µM and the WalK result was “+”. For the same molecule, in assay [2], the “expression of iseA” value is “significantly increased; also recorded: significantly induced iseA gene expression” and the RT-qPCR entry is “+”.
`CC(C)(C)OC(=O)Nc1cccc(NC2=C(Cl)C(=O)c3c(O)ccc(O)c3C2=O)c1` [2l, tert-butyl (3-((3-chloro-5,8-dihydroxy-1,4-dioxo-1,4-dihydronaphthalen-2-yl)amino)phenyl)carbamate]: in assay [1], the IC50 came to 13 µM, the “inhibitory activity against WalK” value is given as “comparable to waldiomycin” and the WalK result is “+”. Further, in assay [2], the “expression of iseA” value is listed as “significantly increased; also recorded: significantly induced iseA gene expression” and the RT-qPCR result is given as “+”.

As usually defined, the IC50 is the concentration needed to halve the response being measured.

Source of the values: article PMC11284088, “Synthesis and biochemical characterization of naphthoquinone derivatives targeting bacterial histidine kinases” (The Journal of Antibiotics, 2024).
